Entries after “also recorded” stand apart in the source; their conditions may differ. Like-named read-outs stand apart in the source and are kept apart here.

For series [1], the target named is T1, CDK1/cyclin B (Homo sapiens, UniProt P06493).
T1 construct: His; made in house; host or cells: Sf9 insect cells (baculovirus)
The experiment in a line: CDK1/cyclin B kinase assay (GST-Rb phosphorylation). The format is biochemical. As to conditions: Table 1.

The target of series [2] is T2, CDK2/cyclin E (Homo sapiens, UniProt P24941).
T2 construct: His; made in house; host or cells: Sf9 insect cells (baculovirus)
Briefly: CDK2/cyclin E kinase assay (GST-Rb phosphorylation).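 Further: enzyme source: His-tagged CDK2/cyclin E co-expressed in Sf9 insect cells via baculovirus, then purified by metal-chelate chromatography.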 The format is biochemical.

Series [3] has as its target ERK-2 (Homo sapiens, UniProt P28482). Briefly: ERK-2 kinase assay (kinase panel). In kind it is biochemical. The following applies: Table 1.
Series [4] concerns the target T3, PKCa (Homo sapiens, UniProt P17252).
T3 construct: 6×His (C); made in house; host or cells: Sf9 insect cells (baculovirus)
Briefly: PKCα kinase assay (Histone 3 phosphorylation). In kind it is biochemical. As to conditions: Table 1. How it is done: PKCα kinase activity may be measured by the incorporation of radio-labeled phosphate in Histone 3, as described. The reaction mixture (total volume 65 μl) consist of 50 mM Tris-HCl, 1 mM Calcium acetate, 3 mM DTT, 0.03 mg/ml Phosphatidylserine, 2.4 μg/ml PMA, 0.04% NP40, 12 mM Mg/Cl, purified PKCα-100 ng, Histone 3, 0.2 mg/ml, 100 μM ATP, 0.2 μCi {γ-^32P}-ATP. The reaction is carried over 15 min at 37° C. in microplate shaker and is stopped by adding 10 μl 75 mM orthophosphoric acid and placing the plate on ice. 50 μl of the reaction mixture is transferred onto P81 filterplate and after washing off the free radioactive phosphate (3 times with 200 μl 75 mM orthophosphoric acid per well) 50 μl of scintillation liquid (Microscint 40) were added to each well and the radioactivity is measured on Scintillation counter (Topcount, HP).

In series [5] the target is SAPK2a (Homo sapiens, UniProt Q16539). The experiment in a line: SAPK2a kinase assay (kinase panel). In kind it is biochemical. The following applies: Table 1.
Sequence of SAPK2a (Q16539 whole entry, species assumed): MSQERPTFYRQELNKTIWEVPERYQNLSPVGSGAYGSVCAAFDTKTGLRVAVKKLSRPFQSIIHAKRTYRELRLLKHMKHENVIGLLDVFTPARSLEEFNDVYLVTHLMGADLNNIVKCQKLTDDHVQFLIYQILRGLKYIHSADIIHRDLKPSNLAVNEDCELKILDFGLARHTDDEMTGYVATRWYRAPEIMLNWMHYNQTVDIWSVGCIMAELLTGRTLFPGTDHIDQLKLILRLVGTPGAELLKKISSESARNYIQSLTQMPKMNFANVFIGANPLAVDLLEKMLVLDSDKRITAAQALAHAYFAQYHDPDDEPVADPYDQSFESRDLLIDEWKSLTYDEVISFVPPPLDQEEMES
The target in series [6] is S6. Briefly: S6 kinase assay (kinase panel). As to conditions: Table 1. The format is biochemical.
Series [7] addresses CDK4/cyclin D1 (Homo sapiens, UniProt P11802). The experiment in a line: biochemical.
Series [8] deals with A549. Briefly: 72-h MTT cytotoxicity assay, A549. The format is cell-based, human. As to conditions: Homo sapiens. How it is done: (§1) Selected compounds from the above examples were subjected to a standard cellular proliferation assay using a range of different human tumour cell lines. Standard 72-h MTT (thiazolyl blue; 3-{4,5-dimethylthiazol-2-yl}-2,5-diphenyltetrazolium bromide) assays were performed (Haselsberger, K.; Peterson, D. C.; Thomas, D. G.; Darling, J. L. Anti Cancer Drugs 1996, 7, 331-8; Loveland, B. E.; Johns, T. G.; Mackay, I. R.; Vaillant, F.; Wang, Z. X.; Hertzog, P. J. Biochemistry International 1992, 27, 501-10). Human tumour cell lines were obtained from the ATCC (American Type Culture Collection, 10801 University Boulevard, Manessas, Va. 20110-2209, USA).
(In general: Tetrazolium dyes change colour on reduction, which living cells bring about.)

Series [9] concerns Saos-2. The experiment in a line: 72-h MTT cytotoxicity assay, Saos-2. In kind it is cell-based. As to conditions: Homo sapiens, SAOS-2, read-out: 72-h Cytotoxicity IC 50 Saos-2; Table 3, 72-h MTT. How it is done: as §1
The subject of series [10] is MCF-7. The experiment in a line: 72-h MTT cytotoxicity assay, MCF-7. The format is cell-based. The following applies: Homo sapiens, MCF7, read-out: 72-h Cytotoxicity IC 50 MCF-7; Table 3, 72-h MTT. How it is done: as §1
Series [11] concerns AGS. Briefly: 72-h MTT cytotoxicity assay, AGS. In kind it is cell-based. The following applies: Homo sapiens, read-out: 72-h Cytotoxicity IC 50 AGS, Table 3, 72-h MTT. How it is done:
as §1

Series [12] concerns DU145. The experiment in a line: 72-h MTT cytotoxicity assay, DU145. In kind it is cell-based. The following applies: Homo sapiens, DU-145, read-out: 72-h Cytotoxicity IC 50 DU145; Table 3, 72-h MTT. How it is done:
as §1

For series [13], the system named is HeLa. Briefly: 72-h MTT cytotoxicity assay, HeLa. The format is cell-based. The following applies: Homo sapiens, read-out: 72-h Cytotoxicity IC 50 HeLa, Table 3, 72-h MTT. How it is done: as §1
The test system of series [14] is A549 cells. Briefly: Mitotic index HitKit (Cellomix). In kind it is cell-based, human. The following applies: toxicity above this concentration. The source says:
The effect of compound 28 on the mitotic index was studied using mitotic index HitKit (Cellomix). Vinblastine was used as control in the experiments.
Above this concentration a decrease in the number of mitotic cells is observed which correlates with a decrease in the total number of cells.

The test system of series [15] is Human osteosarcoma tumour cells (Saos-2). Briefly: Mitotic arrest and apoptosis by phase-contrast microscopy. The format is cell-based. As to conditions: Saos-2 cells, 1 μM, 48 h. How it is done:
Human osteosarcoma tumour cells (Saos-2) were treated with 1 μM of compound 28 for 48 h. […] Compound 28-induced accumulation of mitotic cells was further quantified using mitotic index HitKit (Cellomix).

Series [16] concerns Human lung carcinoma cells (A549). The experiment in a line: Induction of programmed cell death (cytoplasmic vacuolation). The format is cell-based. The following applies: 10 μM, 16 h. How it is done:
In addition to the induction of apoptosis some of the compounds of the invention are capable of inducing forms of programmed cell death that is distinct from apoptosis by the criteria of morphology. Human lung carcinoma cells (A549) were treated for 16 h with 10 μM compound 28.

In series [17] the test system is human tumour cell lines. Briefly: Cell-based assays (anti-proliferative).
From the text: These assays including methods for their performance are described in more detail in Example 23. Using such cell line and enzymes assays it may be determined whether a compound is anti-proliferative in the context of the present invention.
as §1

The mark [18] stands for this setting: A549, 72 h, read-out: 72-h Cytotoxicity IC 50 A549, Table 3, 72-h MTT.
The mark [19] stands for this setting: Table 4, additional data for cytotoxicity assay using the A549 cell line, read-out: A549.
Setting [20] is: Table 2, further results for CDK2/cyclin E inhibition, read-out: CDK2/cyclin E.

Sequence of ERK-2 (P28482 whole entry, species assumed): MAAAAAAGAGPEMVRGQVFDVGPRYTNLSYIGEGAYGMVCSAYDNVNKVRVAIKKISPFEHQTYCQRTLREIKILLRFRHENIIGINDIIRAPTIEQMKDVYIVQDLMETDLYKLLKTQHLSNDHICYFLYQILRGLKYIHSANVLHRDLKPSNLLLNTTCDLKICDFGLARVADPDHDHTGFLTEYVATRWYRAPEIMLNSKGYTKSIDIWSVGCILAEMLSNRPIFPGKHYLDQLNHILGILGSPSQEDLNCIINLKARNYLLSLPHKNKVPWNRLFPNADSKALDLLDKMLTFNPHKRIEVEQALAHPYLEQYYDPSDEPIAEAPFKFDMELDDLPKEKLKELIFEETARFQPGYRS
T1 sequence (P06493 whole entry, species assumed): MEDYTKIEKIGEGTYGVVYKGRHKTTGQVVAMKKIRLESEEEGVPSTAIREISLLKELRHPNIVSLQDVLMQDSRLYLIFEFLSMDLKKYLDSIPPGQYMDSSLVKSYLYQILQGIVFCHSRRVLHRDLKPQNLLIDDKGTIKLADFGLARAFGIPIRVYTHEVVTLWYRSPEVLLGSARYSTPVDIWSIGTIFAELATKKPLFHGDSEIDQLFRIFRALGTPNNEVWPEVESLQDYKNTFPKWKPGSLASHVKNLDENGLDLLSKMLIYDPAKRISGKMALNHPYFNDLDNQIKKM
T1 sequence (P14635 whole entry partner, species assumed): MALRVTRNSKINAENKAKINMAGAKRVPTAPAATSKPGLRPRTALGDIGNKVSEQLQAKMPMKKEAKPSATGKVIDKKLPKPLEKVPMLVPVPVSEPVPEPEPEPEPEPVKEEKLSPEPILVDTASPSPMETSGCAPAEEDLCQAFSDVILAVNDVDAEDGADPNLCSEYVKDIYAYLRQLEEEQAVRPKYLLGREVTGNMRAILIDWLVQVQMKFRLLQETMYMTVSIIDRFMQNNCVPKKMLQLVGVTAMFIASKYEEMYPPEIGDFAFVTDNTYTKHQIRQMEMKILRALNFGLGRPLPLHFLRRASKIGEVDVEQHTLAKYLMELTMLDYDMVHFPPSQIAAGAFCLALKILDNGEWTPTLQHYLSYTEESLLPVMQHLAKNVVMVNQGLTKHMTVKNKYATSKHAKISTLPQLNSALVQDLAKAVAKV
Sequence of CDK4/cyclin D1 (P11802 whole entry, species assumed): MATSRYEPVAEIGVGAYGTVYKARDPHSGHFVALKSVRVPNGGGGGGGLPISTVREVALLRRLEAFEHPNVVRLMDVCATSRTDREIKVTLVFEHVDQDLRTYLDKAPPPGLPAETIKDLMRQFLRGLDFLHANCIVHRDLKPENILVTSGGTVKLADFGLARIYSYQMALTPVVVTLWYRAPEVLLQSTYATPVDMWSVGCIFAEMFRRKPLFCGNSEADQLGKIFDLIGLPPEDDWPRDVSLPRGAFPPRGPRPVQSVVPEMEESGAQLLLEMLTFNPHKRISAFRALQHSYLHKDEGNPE
Sequence of CDK4/cyclin D1 (P24385 whole entry partner, species assumed): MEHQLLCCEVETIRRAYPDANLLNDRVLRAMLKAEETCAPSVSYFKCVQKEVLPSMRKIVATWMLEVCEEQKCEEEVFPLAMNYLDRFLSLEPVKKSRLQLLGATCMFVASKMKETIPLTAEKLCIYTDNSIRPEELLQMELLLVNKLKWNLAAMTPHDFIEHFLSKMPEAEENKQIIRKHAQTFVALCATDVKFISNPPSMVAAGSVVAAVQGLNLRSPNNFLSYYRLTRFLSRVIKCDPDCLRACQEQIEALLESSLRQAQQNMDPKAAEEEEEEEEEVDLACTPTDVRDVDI

For `Cc1nc(C)c(-c2ccnc(Nc3ccc(Cl)cc3)n2)s1` [Compound 6, (4-Chloro-phenyl)-{4-(2,4-dimethyl-thiazol-5-yl)-pyrimidin-2-yl}-amine], the IC50 in [1] was over 20000 nM; in [2] (CDK2/cyclin E, Table 2, further results for CDK2/cyclin E inhibition), 5000 ± 9000 nM; in [2] (Kinase assay IC50 CDK2/cyclin E, Table 1) it was 9000 ± 12000 nM; in [3], over 20000 nM; in series [4] it was over 20000 nM; in [5], over 20000 nM. Further, the IC50 was over 20000 nM in [6] and 500 ± 500 nM in [7].

`Cc1nc(C)c(-c2ccnc(Nc3cccc([N+](=O)[O-])c3)n2)s1` [Compound 12, {4-(2,4-Dimethyl-thiazol-5-yl)-pyrimidin-2-yl}-(3-nitro-phenyl)-amine]: the IC50 in series [1] was 100 nM; in series [3], over 20000 nM; in [4] it was over 20000 nM; in [5], over 20000 nM; in [6], over 20000 nM; in series [8] (setting [18]), 1500 ± 300 nM. For the same compound, the IC50 was determined as 200 nM in series [8] (setting [19]); 1400 ± 300 nM in series [9]; 1700 ± 100 nM in series [10]; 1000 ± 200 nM in series [11]; 1000 ± 100 nM in series [12]; 1200 ± 200 nM in series [13].

In the case of `Cc1nc(C)c(-c2ccnc(Nc3ccc(F)cc3)n2)s1` [Compound 21, {4-(2,4-Dimethyl-thiazol-5-yl)-pyrimidin-2-yl}-(4-fluoro-phenyl)-amine], the IC50 was 200 nM in series [1]; 2500 nM in series [3]; over 20000 nM in series [4]; over 20000 nM in [5]; 1000 nM in series [6]; 5400 ± 400 nM in series [8] (setting [18]). Moreover, the IC50 in [8] (setting [19]) was determined as 6300 nM; in series [9], 8500 ± 1600 nM; in series [10], 9900 ± 400 nM; in series [11] it was 4200 ± 300 nM; in [12], 4300 ± 200 nM; in [13] it was 3200 ± 800 nM.

Turning to `Cc1nc(C)c(-c2ccnc(Nc3ccc(C(F)(F)F)cc3)n2)s1` [Compound 28, {4-(2,4-Dimethyl-thiazol-5-yl)-pyrimidin-2-yl}-(4-trifluoromethyl-phenyl)-amine], the IC50 in series [8] (setting [19]) came out at 3500 nM. Besides, the “maximum percentage of mitotic cells” value in [14] (at a concentration of 4.4 μM, untreated wells […]) turned out to be 17%. Further, the “mitotic arrest and induction of apoptosis” value in series [15] was “mitotic arrest and induction of apoptosis; also recorded: accumulation of mitotic cells and appearance of apoptotic cells was observed”. The “induction of programmed cell death, cytoplasmic vaculation” value in series [16] is “Extensive cytoplasmic vaculation is observed”.

For the compound `Cc1nc(C)c(-c2ccnc(Nc3ccc(Br)cc3)n2)s1` [Compound 31, (4-Bromo-phenyl)-{4-(2,4-dimethyl-thiazol-5-yl)-pyrimidin-2-yl}-amine], the melting point (in general, the temperature of the solid-liquid transition) lay in the range of 173 to 175 °C. Further, the IC50 in series [2] (setting [20]) turned out to be 200 nM. For the same compound, in series [8] (setting [19]), the IC50 worked out at 300 ± 50 nM.

Take `Cc1nc(C)c(-c2ccnc(Nc3ccc(I)cc3)n2)s1` [Compound 34, {4-(2,4-Dimethyl-thiazol-5-yl)-pyrimidin-2-yl}-(4-iodo-phenyl)-amine]: the IC50 in series [8] (setting [19]) came out at 20 nM. The “anti-proliferative effect (in words)” value in series [17] is “even more effective anti-proliferative agent”.

With `COCCOC(=O)c1cc(Nc2nccc(-c3sc(C)nc3C)n2)ccc1F` [Compound 98, 5-{4-(2,4-Dimethyl-thiazol-5-yl)-pyrimidin-2-ylamino}-2-fluoro-benzoic acid 2-methoxy-ethyl ester], the figures for the IC50 in series [2] (setting [20]) and in series [8] (setting [19]) were 1100 nM and 2800 ± 2100 nM, respectively.

On to `CNc1nc(C)c(-c2ccnc(Nc3ccc(F)cc3F)n2)s1` [Compound 105, (2,4-Difluoro-phenyl)-{4-(4-methyl-2-methylamino-thiazol-5-yl)-pyrimidin-2-yl}-amine], for which the IC50 in series [2] (setting [20]) was 2000 nM; in series [8] (setting [19]), 700 ± 900 nM.

On to `CNc1nc(C)c(-c2ccnc(Nc3cc(F)cc(F)c3)n2)s1` [Compound 106, (3,5-Difluoro-phenyl)-{4-(4-methyl-2-methylamino-thiazol-5-yl)-pyrimidin-2-yl}-amine], for which the IC50 in series [2] (setting [20]) was determined as 10000 nM; in series [8] (setting [19]), 2800 ± 500 nM.

With `CNc1nc(C)c(-c2ccnc(Nc3ccc(Cl)c(C(F)(F)F)c3)n2)s1` [Compound 107, (4-Chloro-3-trifluoromethyl-phenyl)-{4-(4-methyl-2-methylamino-thiazol-5-yl)-pyrimidin-2-yl}-amine], the IC50 in series [2] (setting [20]) came to 3000 nM; in [8] (setting [19]) it was 700 ± 200 nM.

For `CC[C@]1(O)C[C@@H]2CN(CCc3c([nH]c4ccccc34)[C@@](C(=O)OC)(c3cc4c(cc3OC)N(C)[C@H]3[C@@](O)(C(=O)OC)[C@H](OC(C)=O)[C@]5(CC)C=CCN6CC[C@]43[C@@H]65)C2)C1` [Vinblastine, reference compound], the “maximum percentage of mitotic cells” value in series [14] (at a concentration of 22 nM) is given as 31%.

The values above are taken from patent publication US6699854B2, “Anti-cancer compounds” (Cyclacel Limited, priority 2000, dated 2004).
